Earlier results as cited in patent US7993907B2, “Biochips and method of screening using drug induced gene and protein expression profiling” (Mowycal Lending, LLC, priority 2001, dated 2011).
Like-named read-outs stand apart in the source and are kept apart here. Where no end group is shown, it is not given here. The star is where a group is joined. For = O=C*

Key:
[1] = Indication Alzheimer's Disease
[2] = Indication Congestive Heart Failure
[3] = examples of hazardous chemicals
[4] = Indication Acute Respiratory Disease
[5] = Indication Breast Cancer
[6] = Indication Osteoporosis
[7] = tested on: human peripheral blood cells; conditions: cells stimulated by pro-inflammatory agents or molecules

C[C@]12CC[C@H](O)CC1=CC[C@@H]1[C@@H]2CC[C@]2(C)C(=O)CC[C@@H]12 [DHEA]
Termination (reason drug was discontinued or terminated in FDA trials) [1]: Results were equal

ENBREL
Termination (reason drug was discontinued or terminated in FDA trials) [2]: Lack of efficacy

CC[n+]1c(-c2ccccc2)c2cc(N)ccc2c2ccc(N)cc21 [Ethidium Bromide (EtBr), Ethidium Bromide]
Hazard [3]: Mutagen

C[C@@H](O)CCCCn1c(=O)c2c(ncn2C)n(C)c1=O [Lisofylline]
Termination (reason drug was discontinued or terminated in FDA trials) [4]: Safety Board

CC/C(=C(\c1ccc(I)cc1)c1ccc(OCCN2CCCC2)cc1)c1ccccc1 [Idoxifene]
Termination (reason drug was discontinued or terminated in FDA trials) [5]: Lack of efficacy
Termination (reason drug was discontinued or terminated in FDA trials) [6]: Lack of efficacy

f-Met-Leu-Phe-Phe (For-MLFF) [HK-X]
Effect on pro-inflammatory responses of human peripheral blood cells [7]: inactivate certain pro-inflammatory responses
Mechanism of action on G protein γ kinase (G protein γ kinase): inhibition of G protein γ kinase
